Consider eleven molecules from patent publication US11667602B2, “Compounds and their use” (AstraZeneca AB, priority 2020, dated 2023).

Like-named read-outs stand apart in the source and are kept apart here.

The target in the assay is T1, human RXFP1 (Homo sapiens, UniProt Q9HBX9).
T1 sequence (Q9HBX9 1-757): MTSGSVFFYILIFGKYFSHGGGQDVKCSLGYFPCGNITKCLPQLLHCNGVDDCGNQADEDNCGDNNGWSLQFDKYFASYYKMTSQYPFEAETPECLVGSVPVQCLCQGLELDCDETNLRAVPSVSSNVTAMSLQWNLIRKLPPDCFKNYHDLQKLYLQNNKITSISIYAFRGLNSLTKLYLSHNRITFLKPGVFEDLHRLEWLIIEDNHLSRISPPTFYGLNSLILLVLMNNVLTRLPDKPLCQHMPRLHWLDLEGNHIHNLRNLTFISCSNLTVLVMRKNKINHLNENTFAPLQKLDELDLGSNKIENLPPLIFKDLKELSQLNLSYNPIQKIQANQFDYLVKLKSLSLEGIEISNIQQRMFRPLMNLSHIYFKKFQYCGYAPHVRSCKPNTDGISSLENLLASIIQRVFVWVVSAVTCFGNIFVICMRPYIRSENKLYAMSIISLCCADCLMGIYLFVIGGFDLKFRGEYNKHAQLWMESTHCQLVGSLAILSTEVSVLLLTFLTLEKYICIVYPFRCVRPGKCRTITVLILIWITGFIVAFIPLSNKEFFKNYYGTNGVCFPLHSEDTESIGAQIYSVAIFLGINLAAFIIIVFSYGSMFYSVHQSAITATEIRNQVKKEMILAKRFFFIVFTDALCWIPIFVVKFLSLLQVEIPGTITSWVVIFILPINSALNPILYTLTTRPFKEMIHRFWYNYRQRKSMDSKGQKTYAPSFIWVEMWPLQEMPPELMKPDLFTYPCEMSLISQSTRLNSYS
Briefly: RXFP1 Hu cAMP (Test A). The format is cell-based. Also noted: expressed in transfected cells; host or cells: Jump-In T-REx CHO-K1 cells (ThermoFisher), induced with 10 ng/ml doxycycline for 24 h. An excerpt: To screen for modulators of hRXFP1, an assay identifying compounds that stimulate cAMP production via the Gs-coupled hRXFP1 receptor was used. cAMP HiRange HTRF kit (available from CisBio Bioassays, France; catalogue number 62AM6PEJ) was employed in large according to manufacturer's recommendations for detection of cAMP. The HTRF method is a competitive immunoassay between native cAMP produced by cells and cAMP labeled with the dye d2. The tracer binding is visualized with a cryptate labeled antibody for cAMP and the signal is thus inversely proportional to the amount of produced cAMP.
Cells: Jump-In™ T-REx™ CHO-K1 Cells (ThermoFisher) stably transfected with human RXFP1 was employed. Cells were induced to express human RXFP1 by treatment with 10 ng/ml doxycycline for 24 h. Cells were then cryopreserved for long term storage.
HTRF detection reagents: cAMP-d2 and anti-cAMP cryptate reconstituted according to CisBio instructions were diluted 1:40 in lysis buffer provided with the HTRF-kit.
3. 4 μL assay buffer with 1 mM IBMX (0.5 mM final concentration) to block phosphodiesterases was added with Multidrop Combi (ThermoFisher).
6. 4 μL cAMP-d2 in lysis buffer was added with Multidrop Combi.
7. 4 μL anti-cAMP cryptate in lysis buffer was added with Multidrop Combi
8. 2 h incubation at room temperature
Using a cAMP standard curve, HTRF data was converted to amount cAMP produced in the samples which was subsequentially used for calculation of concentration responses. Concentration response data were fitted with a four parameter logistic fit, the Hill equation. The results from the assay are reported in Table 36 as EC50 (μM) and Sinf (%).
Where the assay was run multiple times for the same compound, the geometric mean is reported.
Sinf is the fitted activity level, efficacy, at infinite concentration of test compound. To facilitate comparison of efficacy data, efficacy was normalized to % effect of the response stimulated by a saturating concentration of relaxin (1 nM). Where the assay was run multiple times for the same compound, the arithmetic mean is reported.

[1] abbreviates: RXFP1 Hu cAMP, read-out: Test A EC50.

Take `COc1cc(F)c(O[C@H]2CC[C@@](C)(C(=O)O)CC2)cc1C(=O)N[C@@H]1[C@H]2CC[C@H](C2)[C@@H]1C(=O)N[C@@H](C)C(C)(C)C#N` [Example 616]: the “Test A Sinf” value (RXFP1 Hu cAMP) is reported as 101%. In addition, the half-maximal effective concentration (EC50) (in general, the midpoint of the concentration-response curve) under setting [1] is 2 µM.
`COc1cc(F)c(-c2cc(C)c(C(=O)O)c(C)c2)cc1C(=O)N[C@@H]1[C@H]2CC[C@H](C2)[C@@H]1C(=O)Nc1cccc(S(=O)(=O)C(F)(F)F)c1` [Example 252, 2′-Fluoro-4′-methoxy-3,5-dimethyl-5′-(((1S,2R,3S,4R)-3-((3-((trifluoromethyl)sulfonyl)phenyl)carbamoyl)bicyclo[2.2.1]heptan-2-yl)carbamoyl)-[1,1′-biphenyl]-4-carboxylic acid]: under “RXFP1 Hu cAMP”, the “Test A Sinf” value came out at 86%. The half-maximal effective concentration (EC50) under setting [1] is 0.78 µM.
Regarding `COc1cc(F)c(OC2CCC(CO)(C(=O)O)CC2)cc1C(=O)N[C@H]1C[C@H](OC)C[C@H]1C(=O)NCC(C)(C)C` (relative stereo) [Example 549, (1R,4s)-4-(2-Fluoro-4-methoxy-5-(((1S*,2R*,4R*)-4-methoxy-2-(neopentylcarbamoyl)cyclopentyl)carbamoyl)phenoxy)-1-(hydroxymethyl)cyclohexane-1-carboxylic acid], the “Test A Sinf” value (RXFP1 Hu cAMP) was found to be 94%. Moreover, under setting [1], the half-maximal effective concentration (EC50) was 1.3 µM.
Turning to `COc1cc(F)c(-c2ccc(C(=O)O)cc2)cc1C(=O)N[C@@H]1CC[C@@H]1C(=O)Nc1cccc(S(=O)(=O)C(F)(F)F)c1` (racemic) [Example 301], where the note is “RXFP1 Hu cAMP”, the “Test A Sinf” value amounted to 69%.
Take `COc1cc(F)c(O[C@H]2CC[C@@](C)(C(=O)O)CC2)cc1C(=O)NC1C(OC)CCC1C(=O)Nc1cccc(S(=O)(=O)C(F)(F)F)c1` (single isomer, unassigned) [Example 526, (1R,4s)-4-(2-Fluoro-4-methoxy-5-(((1S*,2S*,5S*)-2-methoxy-5-((3-((trifluoromethyl)sulfonyl)phenyl)carbamoyl)cyclopentyl)carbamoyl)phenoxy)-1-methylcyclohexane-1-carboxylic acid]: the EC50 under setting [1] was > 40 µM.
On to “(1R,4s)-4-(2-Fluoro-5-(((1S*,2R*)-2-((4-fluoro-3-(pentafluoro-λ6-sulfaneyl)phenyl)carbamoyl)cyclobutyl)carbamoyl)-4-methoxyphenoxy)-1-methylcyclohexane-1-carboxylic acid [Example 571]”, for which, where the note is “RXFP1 Hu cAMP”, the “Test A Sinf” value worked out at 100%.
Take `COc1cc(C#N)c(O[C@H]2CC[C@@](C)(C(=O)O)CC2)cc1C(=O)N[C@H]1[C@@H](C(=O)NCC2(C)CCC2)[C@H]2CC[C@@H]1N2C(=O)OC(C)(C)C` (racemic) [Example 334]: the “Test A Sinf” value (RXFP1 Hu cAMP) turned out to be 96%. Further, a half-maximal response (Test A EC50, RXFP1 Hu cAMP) (EC50) required 0.0043 µM.
`COc1cc(F)c(O[C@H]2C[C@@](C)(C(=O)O)C2)cc1C(=O)N[C@@H]1[C@@H]2CC[C@@H](C2)[C@@H]1C(=O)Nc1cccc(S(=O)(=O)C(F)(F)F)c1` [Example 505, (1S,3s)-3-(2-Fluoro-4-methoxy-5-(((1R,2R,3S,4S)-3-((3-((trifluoromethyl)sulfonyl)phenyl)carbamoyl)bicyclo[2.2.1]heptan-2-yl)carbamoyl)phenoxy)-1-methylcyclobutane-1-carboxylic acid]: for the setting “RXFP1 Hu cAMP”, the “Test A Sinf” value was determined as 94%. Moreover, under setting [1], the EC50 worked out at 0.014 µM.
`COc1cc(F)c(O[C@H]2CC[C@@](C)(C(=O)O)CC2)cc1C(=O)N[C@@H]1C[C@H](OC)C[C@@H]1C(=O)Nc1cccc(S(=O)(=O)C(F)(F)F)c1` (stereo in doubt) [Example 335]: the “Test A Sinf” value (RXFP1 Hu cAMP) is on record as 104%. Besides, the EC50 under setting [1] is 0.54 µM.
For the molecule `COc1cc(F)c(-c2ccc(C(=O)O)cc2)cc1C(=O)N[C@H]1[C@@H](C(=O)N[C@H]2CCCN(S(=O)(=O)C(F)(F)F)C2)[C@@H]2C=C[C@H]1C2` (racemic) [Example 311], under “RXFP1 Hu cAMP”, the “Test A Sinf” value is listed as 67%. For the same molecule, under setting [1], the concentration for a half-maximal effect (EC50) was 7.7 µM.
Regarding `COc1cc(F)c(-c2cccc(C(=O)O)n2)cc1C(=O)N[C@H]1[C@@H](C(=O)Nc2cccc(S(=O)(=O)C(F)(F)F)c2)[C@@H]2C=C[C@H]1C2` (racemic) [Example 279], the concentration giving a half-maximal response (EC50) under setting [1] is > 40 µM.
